# Laboratory results taken from patent US20220380443A1, “TARGETING NAPA-LINKED PEP[…] TREATING LYME DISEASE” (priority 2021, published 2022).
# How the values were obtained:
# dHL-60 cells = assay: dHL-60 cell (neutrophil) migration in microfluidic competitive chemotaxis-chip (μC3); type: cell-based, Human; settings: 125 μg/mL PG sample, 10 nM fMLP, 100 nM LTB4, 5 hours; for Percentage of Cells Migrated toward stimulus: mean±SD of three biological replicates
# Source text: Fresh, mixed donor human peripheral blood mononuclear cells (PBMCs) (Zen-Bio) were re-suspended in PBMC media (Zen-Bio) overnight prior to stimulations. Human NOD2 reporter cells, which were used to detect PG in OMVs (see below), were purchased from Invi-vogen and cultured as recommended by the manufacturer. Human promyelocytic leukemia cells (HL-60 CCL-240, American Type Culture Collection ATCC, Manassas, Va.) were cul-tured in complete media comprising of Iscove's Modified Dulbecco's Medium (IMDM, ATCC, Manassas, Va.) supplemented with 10% fetal bovine serum (FBS, ATCC, Manassas, Va.) at 37° C. in 5% CO2, according to ATCC instructions. HL-60 cells were differentiated into a neutrophil-like state with 1.5% dimethyl sulfoxide (DMSO, Sigma-Aldrich, St. Louis, Mo.) to 1.5×10^5 cells/mL for five days. Differentiated HL-60 cells (dHL-60 cells) were stained with Hoechst solution [20 mM] for 10 minutes (Thermo Fisher Scientific, Waltham, Mass.) at 37° C. and 5% CO2 and spun down and re-suspended into a concentration of 5.0×10^7 cells/mL immediately before use in the migration assay.
# The microfluidic competitive chemotaxis-chip (μC3) was used to perform each migration assay. This device allowed for the creation of a dual gradient through two opposing chemoattractant reservoirs. The central cell-loading chamber is connected to the two reservoirs by perpendicular cell migration ladders (measured 10 μm wide×10 μm tall). Device fabrication was as previously. Briefly, two layers of photoresist (SUB, MicroChem), the first one 10 μm thin (corresponding to the migration channels) and the second one 70 μm thick (corresponding to the neutrophil loading chamber) were patterned on one silicon wafer sequentially using two photolithographic masks and processing cycles according to the instructions from the manufacturer. The wafer with patterned photoresist was used as a mold to produce polydimethylsiloxane (PDMS) (Sylgard 184, Elsworth Adhesives, Wilmington, Mass.) devices, which were then bonded to the base of glass-bottom 6-well plates (MatTek Corp., Ashland, Mass.), using an oxygen plasma machine (Nordson March, Concord, Calif.). Prior to each migration assay, the device was primed with fibronectin (Sigma-Aldrich, St. Louis, Mo.) (11 μg/mL). After priming with fibronectin, each device was covered in 4 mL complete media. […]
# Each assay was visualized on a fully automated Nikon TiE microscope using a Plan Fluor 10×Ph1 DLL (NA=0.3) lens with a biochamber heated to 37° C. with 5% CO2. […] Image analysis of cell migration counts was analyzed automatically using ImageJ Cell tracking was conducted using an automated tracker, TrackMate (custom tracking and analysis codes are available for download at https://github.com/boribong/Single-Cell-Migration-Tracking) and ImageJ software (NIH). […]
# [1] = tested on: B. burgdorferi 5A11 and 5A11/napA; assay: Lysozyme and NaCl stress tests (microtiter growth, colony forming units); type: cell-based, Borrelia burgdorferi; settings: microtiter plate, end-point after 6 days, FIG. 7A
# Procedure: Initial studies geared towards understanding both permissive and restrictive growth conditions upon stress were performed in microplates with serial dilutions. Each strain was cultured to ˜1×10^6 cells/mL and subsequently back diluted to a final concentration of 1×10^4 cells/mL in fresh B SKIT containing cell-wall stress. Lysozyme and NaCl were serially diluted 1:1. The final concentration of Lysozyme ranged from 2 mg/mL to 0 mg/mL, while NaCl varied from 500 nM to 7.8 mM. […] Both microtiter plates contained 4 wells of uninoculated media, which served as a negative control. These 96 well plates were allowed to incubate at 37° C. under 5% CO2 for 6 days. Afterwards, they were placed at ambient conditions for 2 hours before being imaged.
# Parental and NapA mutant bacteria were cultured to ˜6.5×10^6 cells/mL and back diluted to a final starting concentration of 10^6 cells/mL. Each culture was stressed with Lysozyme (0.37 mg/mL) or NaCl (0.111 M) for 24 hours without additional antibiotic selection. Afterwards, each culture was plated using standard methods [92] and cultured at 37° C. under 5% CO2.
Compound,"dHL-60 Cell Velocity, cells migrating toward stimulus (dHL-60 cells)",Percentage of Cells Migrated toward stimulus (dHL-60 cells),resistance of wild-type cells to NaCl-induced stress versus 5A11/napA ([1]; NaCl 7.8 to 500 mM),less enzyme needed to ablate 5A11/napA growth than wild-type bacteria ([1]; Lysozyme 0 to 2 mg/mL)
"CCCCC/C=C\C[C@@H](O)/C=C/C=C/C=C\[C@@H](O)CCCC(=O)O [LTB4, Leukotriene B4]",7.04±4.90 μm/min,25.89±3.52%,–,–
[Cl-].[Na+] [NaCl],–,–,more than 8 times,–
Formylmethionine-leucyl-phenylalanine [fMLP],6.93±4.40 μm/min,35.94±5.42%,–,–
Lysozyme,–,–,–,5-6 times
